Series [1] is described as follows: Wild-type MDCK permeability and efflux assay (Papp, efflux ratio). It counts as in vitro ADME. To be noted: dog, pH 7.4, wild-type MDCK cells; for efflux ratio at 1 h, 10 μM: Papp B>A/Papp A>B, read-out: ER WT (Efflux Ratio). The procedure, abridged: (§1)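 Confluent WT or MDR1-MDCK monolayers (3-day culture) dosed with 10 μM compound, 0.1% DMSO, in HBSS/25 mM HEPES pH 7.4, A>B and B>A, 1 h at 37 °C; LC-MS/MS quantitation. Papp from acceptor/donor ratio; efflux ratio = Papp B>A/A>B; EER = ER(MDR1)/ER(WT).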

A further series concerns the target T1, MDR1 (P-glycoprotein) (Homo sapiens, UniProt P08183).
T1 construct: host or cells: MDCK (MDR1-MDCK; wild-type MDCK as comparator)
Description: MDR1-MDCK permeability and efflux assay (Papp, efflux ratio, effective efflux ratio). It is filed as in vitro ADME. To be noted: dog; for Papp A→B at 1 h, 10 μM: pH 7.4, read-out: Papp AB MDR1. The procedure, abridged:
as §1

Where [2] appears, read: MDCK-MDR1, pH 7.4, ER(MDR1-MDCK)/ER(wild-type MDCK), read-out: EER (Effective Efflux Ratio).
The mark [3] stands for this setting: MDCK-MDR1, pH 7.4, Papp B>A/Papp A>B, MDR1-MDCK cells, read-out: ER MDR1 (Efflux Ratio).

Molecules are shown by their SMILES. Like-named read-outs stand apart in the source and are kept apart here.

T1 sequence (P08183 whole entry): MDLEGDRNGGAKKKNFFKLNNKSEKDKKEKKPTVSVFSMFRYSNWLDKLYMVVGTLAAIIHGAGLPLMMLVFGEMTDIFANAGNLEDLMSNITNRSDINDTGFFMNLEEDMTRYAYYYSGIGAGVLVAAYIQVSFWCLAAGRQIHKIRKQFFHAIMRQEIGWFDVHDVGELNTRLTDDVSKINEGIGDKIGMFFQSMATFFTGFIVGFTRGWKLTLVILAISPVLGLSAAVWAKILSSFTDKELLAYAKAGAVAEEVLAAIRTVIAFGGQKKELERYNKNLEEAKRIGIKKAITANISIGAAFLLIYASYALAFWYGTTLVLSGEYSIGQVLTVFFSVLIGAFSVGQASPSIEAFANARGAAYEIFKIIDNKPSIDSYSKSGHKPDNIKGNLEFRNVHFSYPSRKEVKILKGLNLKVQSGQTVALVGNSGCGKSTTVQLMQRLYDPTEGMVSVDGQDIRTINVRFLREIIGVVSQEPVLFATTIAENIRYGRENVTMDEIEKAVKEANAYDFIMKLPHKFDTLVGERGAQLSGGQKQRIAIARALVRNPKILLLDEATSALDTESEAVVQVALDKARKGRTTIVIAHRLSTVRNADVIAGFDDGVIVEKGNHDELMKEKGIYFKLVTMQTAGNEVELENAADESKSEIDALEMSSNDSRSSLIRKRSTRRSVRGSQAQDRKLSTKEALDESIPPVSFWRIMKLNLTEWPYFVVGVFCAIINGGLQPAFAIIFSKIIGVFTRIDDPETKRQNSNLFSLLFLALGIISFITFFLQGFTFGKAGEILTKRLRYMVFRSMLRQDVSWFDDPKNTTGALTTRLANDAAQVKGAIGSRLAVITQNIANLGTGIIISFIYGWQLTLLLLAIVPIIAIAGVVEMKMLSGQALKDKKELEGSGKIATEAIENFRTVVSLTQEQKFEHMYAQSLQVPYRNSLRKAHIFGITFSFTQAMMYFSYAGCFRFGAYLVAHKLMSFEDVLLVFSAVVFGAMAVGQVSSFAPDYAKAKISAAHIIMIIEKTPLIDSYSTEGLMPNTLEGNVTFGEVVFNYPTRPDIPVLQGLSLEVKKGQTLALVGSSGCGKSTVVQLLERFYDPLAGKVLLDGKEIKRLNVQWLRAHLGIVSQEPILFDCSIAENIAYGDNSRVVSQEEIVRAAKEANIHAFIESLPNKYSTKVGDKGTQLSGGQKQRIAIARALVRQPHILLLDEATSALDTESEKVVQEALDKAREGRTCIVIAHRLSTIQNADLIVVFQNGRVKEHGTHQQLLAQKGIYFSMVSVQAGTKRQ

As to `CC1COc2cc(Cl)ccc2N1C(=O)N1CC2(C1)CN(c1cnccn1)C2` (single isomer, unassigned) [1-58-B], the Papp A→B at 1 h, 10 μM (in series [1]; on MDR1 (P-glycoprotein) (MDR1-MDCK cells)) was above 20 ×10⁻⁶ cm/s each time. The efflux ratio at 1 h, 10 μM (in series [1]; at MDR1 (P-glycoprotein) (setting [2]); on MDR1 (P-glycoprotein) (setting [3])) was 1 to 2 in each case.
As for `COc1ccc2c(c1)OCC(C)N2C(=O)N1CC2(C1)CN(c1ccc(F)cn1)C2` (single isomer, unassigned) [1-59-B], the Papp A→B at 1 h, 10 μM (in series [1]; on MDR1 (P-glycoprotein) (MDR1-MDCK cells)) was above 20 ×10⁻⁶ cm/s in each case. The efflux ratio at 1 h, 10 μM is below 1 in series [1], 1 to 2 at MDR1 (P-glycoprotein) (setting [2]) and 1 to 2 at MDR1 (P-glycoprotein) (setting [3]).
On to `CC1COc2cc(Cl)ccc2N1C(=O)N1CC2(C1)CN(c1ccccn1)C2` (single isomer, unassigned) [1-60-B], for which the Papp A→B at 1 h, 10 μM (in series [1]; at MDR1 (P-glycoprotein) (MDR1-MDCK cells)) was above 20 ×10⁻⁶ cm/s in each case. Besides, the efflux ratio at 1 h, 10 μM in series [1] was below 1; at MDR1 (P-glycoprotein) (setting [2]), 1 to 2; on MDR1 (P-glycoprotein) (setting [3]) it was below 1.
In the case of `CC1COc2cc(F)ccc2N1C(=O)N1CC2(C1)CN(c1cnccn1)C2` (single isomer, unassigned) [1-65-B], the Papp A→B at 1 h, 10 μM (in series [1]; at MDR1 (P-glycoprotein) (MDR1-MDCK cells)) was above 20 ×10⁻⁶ cm/s in each case. For the same compound, the efflux ratio at 1 h, 10 μM in series [1] was 1 to 2; at MDR1 (P-glycoprotein) (setting [2]), below 1; at MDR1 (P-glycoprotein) (setting [3]), 1 to 2.
For the compound `CC1COc2cc(Cl)ccc2N1C(=O)N1CC2(C1)CN(c1ncc(F)cn1)C2` (single isomer, unassigned) [18-2-B], the Papp A→B at 1 h, 10 μM (in series [1]; at MDR1 (P-glycoprotein) (MDR1-MDCK cells)) was above 20 ×10⁻⁶ cm/s throughout. In addition, the efflux ratio at 1 h, 10 μM (in series [1]; on MDR1 (P-glycoprotein) (setting [2]); at MDR1 (P-glycoprotein) (setting [3])) was below 1 each time.
As to `Cc1cnc(N2CC3(CN(C(=O)N4c5ccc(Cl)cc5OCC4C)C3)C2)nc1` (single isomer, unassigned) [20-13-B], the Papp A→B at 1 h, 10 μM (in series [1]; on MDR1 (P-glycoprotein) (MDR1-MDCK cells)) was above 20 ×10⁻⁶ cm/s each time. Moreover, the efflux ratio at 1 h, 10 μM in series [1] was below 1; on MDR1 (P-glycoprotein) (setting [2]), 1 to 2; at MDR1 (P-glycoprotein) (setting [3]), 1 to 2.
`CC1COc2cc(Cl)ccc2N1C(=O)N1CC2(C1)CN(c1nn(C)c3ncccc13)C2` (single isomer, unassigned) [20-15-B]: the Papp A→B at 1 h, 10 μM (in series [1]; on MDR1 (P-glycoprotein) (MDR1-MDCK cells)) was above 20 ×10⁻⁶ cm/s in each case. Also, the efflux ratio at 1 h, 10 μM in series [1] was below 1; on MDR1 (P-glycoprotein) (setting [2]), 1 to 2; on MDR1 (P-glycoprotein) (setting [3]) it was below 1.
Take `O=C(N1CC2(C1)CN(c1cnc(F)cn1)C2)N1CCOc2cc(Cl)ccc21` [1-18]: the Papp A→B at 1 h, 10 μM (in series [1]; on MDR1 (P-glycoprotein) (MDR1-MDCK cells)) was above 20 ×10⁻⁶ cm/s throughout. The efflux ratio at 1 h, 10 μM (in series [1]; on MDR1 (P-glycoprotein) (setting [2]); on MDR1 (P-glycoprotein) (setting [3])) was below 1 throughout.
For the compound `Cc1cncc(N2CC3(CN(C(=O)N4CCOc5cc(Cl)ccc54)C3)C2)n1` [1-22], the Papp A→B at 1 h, 10 μM (in series [1]; on MDR1 (P-glycoprotein) (MDR1-MDCK cells)) was above 20 ×10⁻⁶ cm/s each time. Also, the efflux ratio at 1 h, 10 μM was below 1 in series [1], 1 to 2 at MDR1 (P-glycoprotein) (setting [2]) and 1 to 2 on MDR1 (P-glycoprotein) (setting [3]).
For `CC1COc2cc(Cl)ccc2N1C(=O)N1CC2(C1)CN(c1ccccn1)C2` (centres unmarked) [1-60], the Papp A→B at 1 h, 10 μM (in series [1]; at MDR1 (P-glycoprotein) (MDR1-MDCK cells)) was above 20 ×10⁻⁶ cm/s in each case. Further, the efflux ratio at 1 h, 10 μM (in series [1]; at MDR1 (P-glycoprotein) (setting [2]); at MDR1 (P-glycoprotein) (setting [3])) was below 1 throughout.
`O=C(N1CC2(C1)CN(c1ccc(F)cn1)C2)N1CCOc2cc(F)ccc21` [1-64]: the Papp A→B at 1 h, 10 μM (in series [1]; on MDR1 (P-glycoprotein) (MDR1-MDCK cells)) was above 20 ×10⁻⁶ cm/s throughout. In addition, the efflux ratio at 1 h, 10 μM in series [1] is below 1; at MDR1 (P-glycoprotein) (setting [2]) it was 1 to 2; at MDR1 (P-glycoprotein) (setting [3]) it was 1 to 2.
In the case of `O=C(N1CC2(C1)CN(c1cc(F)ccn1)C2)N1CCOc2cc(Cl)ccc21` [1-70], the Papp A→B at 1 h, 10 μM (in series [1]; on MDR1 (P-glycoprotein) (MDR1-MDCK cells)) was above 20 ×10⁻⁶ cm/s throughout. The efflux ratio at 1 h, 10 μM in series [1] is 1 to 2; at MDR1 (P-glycoprotein) (setting [2]) it was below 1; on MDR1 (P-glycoprotein) (setting [3]), 1 to 2.
`O=C(N1CC2(C1)CN(c1cccnn1)C2)N1CCOc2cc(Cl)ccc21` [1-71]: the Papp A→B at 1 h, 10 μM (in series [1]; at MDR1 (P-glycoprotein) (MDR1-MDCK cells)) was above 20 ×10⁻⁶ cm/s in each case. The values for the efflux ratio at 1 h, 10 μM (in series [1]; on MDR1 (P-glycoprotein) (setting [2]); at MDR1 (P-glycoprotein) (setting [3])) were below 1, above 3 and 1 to 2, respectively.
For `O=C(N1CC2(C1)CN(c1cccnc1)C2)N1CCOc2cc(Cl)ccc21` [1-72], the Papp A→B at 1 h, 10 μM (in series [1]; at MDR1 (P-glycoprotein) (MDR1-MDCK cells)) was above 20 ×10⁻⁶ cm/s in each case. The efflux ratio at 1 h, 10 μM in series [1] is below 1; on MDR1 (P-glycoprotein) (setting [2]) it was 1 to 2; at MDR1 (P-glycoprotein) (setting [3]), below 1.
Regarding `CC1COc2cc(Cl)ccc2N1C(=O)N1CC2(C1)CN(c1noc3ccccc13)C2` (centres unmarked) [21-1, (6-(benzo[d]isoxazol-3-yl)-2,6-diazaspiro[3.3]heptan-2-yl)(7-chloro-3-methyl-2,3-dihydro-4H-benzo[b][1,4]oxazin-4-yl)methanone], the Papp A→B at 1 h, 10 μM in series [1] lay in the range of 10 to 20 ×10⁻⁶ cm/s; at MDR1 (P-glycoprotein) (MDR1-MDCK cells) it was 7 to 10 ×10⁻⁶ cm/s. The efflux ratio at 1 h, 10 μM is below 1 in series [1], 2 to 3 at MDR1 (P-glycoprotein) (setting [2]) and 1 to 2 on MDR1 (P-glycoprotein) (setting [3]).
With `CC1COc2cc(Cl)ccc2N1C(=O)N1CC2(C1)CN(c1ncccc1C#N)C2` (centres unmarked) [21-2], the Papp A→B at 1 h, 10 μM (in series [1]; on MDR1 (P-glycoprotein) (MDR1-MDCK cells)) was above 20 ×10⁻⁶ cm/s in each case. Also, the results for the efflux ratio at 1 h, 10 μM (in series [1]; on MDR1 (P-glycoprotein) (setting [2]); at MDR1 (P-glycoprotein) (setting [3])) were below 1, 1 to 2 and 1 to 2, respectively.
`Cc1cncc(N2CC3(CN(C(=O)N4c5ccc(Cl)cc5OCC4C)C3)C2)n1` (centres unmarked) [21-3]: the Papp A→B at 1 h, 10 μM (in series [1]; at MDR1 (P-glycoprotein) (MDR1-MDCK cells)) was above 20 ×10⁻⁶ cm/s throughout. The efflux ratio at 1 h, 10 μM in series [1] was below 1; on MDR1 (P-glycoprotein) (setting [2]), 1 to 2; on MDR1 (P-glycoprotein) (setting [3]), 1 to 2.
For `Cc1cnnc(N2CC3(CN(C(=O)N4c5ccc(Cl)cc5OCC4C)C3)C2)c1` (centres unmarked) [21-4], the Papp A→B at 1 h, 10 μM (in series [1]; on MDR1 (P-glycoprotein) (MDR1-MDCK cells)) was above 20 ×10⁻⁶ cm/s throughout. Besides, the figures for the efflux ratio at 1 h, 10 μM (in series [1]; on MDR1 (P-glycoprotein) (setting [2]); on MDR1 (P-glycoprotein) (setting [3])) were 1 to 2, above 3 and above 3, respectively.
On to `CC1COc2cc(Cl)ccc2N1C(=O)N1CC2(C1)CN(c1ncncc1F)C2` (centres unmarked) [21-5], for which the Papp A→B at 1 h, 10 μM (in series [1]; on MDR1 (P-glycoprotein) (MDR1-MDCK cells)) was above 20 ×10⁻⁶ cm/s throughout. Besides, the figures for the efflux ratio at 1 h, 10 μM (in series [1]; at MDR1 (P-glycoprotein) (setting [2]); at MDR1 (P-glycoprotein) (setting [3])) were 1 to 2, below 1 and 1 to 2, respectively.
With `CC1COc2cc(Cl)ccc2N1C(=O)N1CC2(C1)CN(c1ccncn1)C2` (centres unmarked) [21-6], the Papp A→B at 1 h, 10 μM (in series [1]; on MDR1 (P-glycoprotein) (MDR1-MDCK cells)) was above 20 ×10⁻⁶ cm/s throughout. The efflux ratio at 1 h, 10 μM in series [1] is below 1; on MDR1 (P-glycoprotein) (setting [2]) it was 2 to 3; at MDR1 (P-glycoprotein) (setting [3]) it was below 1.
With `Cc1nccc(N2CC3(CN(C(=O)N4c5ccc(Cl)cc5OCC4C)C3)C2)n1` (centres unmarked) [21-8], the Papp A→B at 1 h, 10 μM (in series [1]; at MDR1 (P-glycoprotein) (MDR1-MDCK cells)) was above 20 ×10⁻⁶ cm/s in each case. For the same compound, the efflux ratio at 1 h, 10 μM in series [1] was below 1; at MDR1 (P-glycoprotein) (setting [2]), 2 to 3; at MDR1 (P-glycoprotein) (setting [3]), 1 to 2.
In the case of `CC1COc2cc(Cl)ccc2N1C(=O)N1CC2(C1)CN(c1nccc(C(F)(F)F)n1)C2` (centres unmarked) [21-10], the Papp A→B at 1 h, 10 μM (in series [1]; at MDR1 (P-glycoprotein) (MDR1-MDCK cells)) was 10 to 20 ×10⁻⁶ cm/s in each case. The efflux ratio at 1 h, 10 μM (in series [1]; on MDR1 (P-glycoprotein) (setting [2]); at MDR1 (P-glycoprotein) (setting [3])) was 1 to 2 in each case.

(Values after patent US12152038B2, “Vasopressin receptor antagonists and products and methods related thereto” (Neumora Therapeutics, Inc., priority 2017, dated 2024).)
